From patent US7642280B2, “Inhibitors of acyl glucosaminyl inositol amidase and methods of use” (The Regents of the University of California, priority 2001, dated 2010) come the findings set out here.

Assay [1] concerns the target mycothiol S-conjugate amidase (MCA) (Mycolicibacterium smegmatis, UniProt A0R2W9). Kind of assay: Fluorescence-detected HPLC assay of MCA cleavage of MSmB (50 μM MSmB as substrate), Examples 1 and 3. Type of assay: biochemical.
Assay [2] addresses M. tuberculosis MCA (Mycobacterium tuberculosis, UniProt P9WJN1). In words: biochemical.
In assay [3] the target is Mycobacterium smegmatis mycothiol-S-conjugate amidase (MCA) (Mycolicibacterium smegmatis, UniProt A0R2W9). In words: Fluorescence-based HPLC IC50 assay, wild type M. smegmatis MCA with natural MSmB. Type of assay: biochemical.
The mark [4] stands for this setting: recombinant M. tuberculosis MCA approx. 20 nM, 30 μM synthetic MSmB, 20 min, 31° C., read-out: IC50 M. tb.
[5] abbreviates: 50 μM MSmB as substrate, read-out: concentration that inhibited mycothiol S-conjugate amidase by 50%.
The mark [6] stands for this setting: wild type M. smegmatis MCA approx. 20 nM, 30 μM natural MSmB, 20 min, 31° C., read-out: IC50 M. smeg.

Like-named read-outs stand apart in the source and are kept apart here.

Chain of M. tuberculosis MCA (P9WJN1 whole entry): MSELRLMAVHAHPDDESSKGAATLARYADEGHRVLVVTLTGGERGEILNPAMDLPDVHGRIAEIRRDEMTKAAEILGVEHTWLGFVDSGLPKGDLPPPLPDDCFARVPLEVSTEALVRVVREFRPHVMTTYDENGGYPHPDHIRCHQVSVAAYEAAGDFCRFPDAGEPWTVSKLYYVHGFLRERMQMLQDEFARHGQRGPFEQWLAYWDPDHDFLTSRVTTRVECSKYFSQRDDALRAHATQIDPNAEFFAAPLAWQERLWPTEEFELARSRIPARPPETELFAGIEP
Chain of Mycobacterium smegmatis mycothiol-S-conjugate amidase (MCA) (A0R2W9 whole entry): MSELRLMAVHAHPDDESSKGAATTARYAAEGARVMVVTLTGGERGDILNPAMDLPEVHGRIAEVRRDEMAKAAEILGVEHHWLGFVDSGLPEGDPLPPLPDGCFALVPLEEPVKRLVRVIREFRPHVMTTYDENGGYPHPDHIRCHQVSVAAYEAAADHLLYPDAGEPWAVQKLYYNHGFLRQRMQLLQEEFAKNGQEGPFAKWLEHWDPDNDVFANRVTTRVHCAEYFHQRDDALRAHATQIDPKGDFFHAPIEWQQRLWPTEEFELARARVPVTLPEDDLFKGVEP
Chain of mycothiol S-conjugate amidase (MCA) (A0R2W9 whole entry): as above

For `COC1=C(Br)[C@@H](O)[C@]2(C=C1Br)CC(C(=O)NCCc1[nH]c(N)nc1-c1cc(O)c3ncc(O)c(O)c3c1O)=NO2` [Compound 1], the IC50 in assay [1] was found to be 2 µM; in assay [2] (setting [4]) it was 3 µM; in assay [3], 2 µM. `COC1=C(Br)[C@@H](O)[C@]2(C=C1Br)CC(C(=O)NCCc1cnc(N)[nH]1)=NO2` [Compound 2, Pseudoceratine]: the IC50 in assay [1] (setting [5]), in assay [2] (setting [4]) and in assay [3] (setting [6]) was 100 µM in each case. For `COC1=C(Br)C[C@]2(OC=C1Br)ON=C(C(=O)NCCCOc1c(Br)cc(C(O)CN)cc1Br)[C@@H]2O` (stereo partly shown) [Compound 4, psammaplysin B], the IC50 in assay [1] (setting [5]) was 3 µM; in assay [2] (setting [4]), 30 µM; in assay [3] (setting [6]), 20 µM.

Consider `CN1C(=O)[C@]23CC4=CC=C[C@H](O)[C@H]4N2C(=O)[C@@]1(CO)SS3` [Compound 12, Gliotoxin], for which the IC50 in assay [2] and in assay [3] (setting [6]) was 30 µM throughout. Consider `CS[C@]1(CO)C(=O)N2[C@H]3C(=CC=C[C@@H]3O)C[C@@]2(SC)C(=O)N1C` [Compound 13, S,S-dimethyl gliotoxin], for which the IC50 in assay [3] (setting [6]) is 280 µM. The same measure, in the same setting: the same measure for `COc1cc(O)c2c(c1)C(=O)c1cc(C)cc(O)c1C2=O` [Compound 14, Physcion]: 50 µM. In the case of `O=c1c(O)c[nH]c2c(O)ccc(O)c12` [uranidine, reference compound], the “inhibitory activity against MCA (in words)” value in assay [1] (50 μM MSmB as substrate, absence of cleavage product AcCys-bimane) is given as “ineffective”. Oceanapiside [Compound 7]: the IC50 worked out at 5 µM in assay [1] (50 μM MSmB as substrate, read-out: IC50 amidase inhibition (Example 3, FIG. 6)); 10 µM in assay [2] (setting [4]); 0.5 µM in assay [3] (setting [6]). On to Suvanine [Compound 10], for which the IC50 in assay [3] (setting [6]) came out at 60 µM. Consider halisulfate 1 [Compound 11], for which the IC50 in assay [3] (setting [6]) was determined as 40 µM. As for oceanapiside aglycon [Compound 8], in assay [2] (setting [4]), the IC50 came to 20 µM.

In the case of psammaplysin A [Compound 3], the IC50 in assay [2] (setting [4]) and in assay [3] (setting [6]) was 30 µM in each case.
